For 27 molecules, TGI and GI50 results are on record in PubChem BioAssay (NCI).

Test in all cases: NCI-60 cell line screen, 48 h
Assay [1] concerns SF-295 CNS.
Assay [2] deals with SNB-75 CNS.
Assay [3] deals with MDA-MB-435.
Assay [4] relates to 786-0 renal.
Assay [5] concerns IGROV1 ovarian.
Assay [6] deals with SK-OV-3 ovarian.
The subject of assay [7] is EKVX NSCLC.
For assay [8], the system named is SF-268 CNS.
The test system of assay [9] is KM12 colon.
Assay [10] has as its system M14 melanoma.

“And” between values parts separate entries of the source, which are not always exact repeats. Equal entries are not always repeated.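 Grown in 96-well plates, cells were treated for 48 hours with each compound at five concentrations. Insufficient inhibition: endpoint recorded as highest concentration tested. The concentration for 50% growth inhibition is given as GI50. TGI is the concentration that stops growth completely.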 Where a SMILES comes first, the peptide text is derived from it. [ ]: non-standard residue; d: D form. The star is where a group is joined. Bn2Val = CC(C)[C@@H](C(=O)*)N(Cc1ccccc1)Cc1ccccc1; NMeV = CN[C@H](C(=O)O)C(C)C; X29 = COc1ccc(CN*)c(OC)c1; dNMeA = CN[C@H](C)C(=O)O

Turning to `O=C1CC(C(CC(=O)c2ccccc2)c2ccccc2)C(=O)c2ccccc2N1` (stereo not drawn), the TGI in assay [1], in [2], in [3], in [4], in [5] and in [6] was over 100 µM throughout. The TGI in assay [7], in [8], in assay [9] and in assay [10] was over 100 µM throughout.
Regarding `Cc1nnc2n(c1=O)CCN2C`, the TGI in assay [1], in assay [2], in assay [3], in assay [4], in assay [5] and in [6] was over 100 µM each time. The TGI in assay [7], in assay [8], in [9] and in assay [10] was over 100 µM in each case.
With `CCN(CC)CCCNC(=O)c1cc2cc(NC(=O)c3cc4cc([N+](=O)[O-])ccc4[nH]3)ccc2[nH]1`, the TGI in [1], in assay [2], in [3], in assay [4], in assay [5] and in assay [6] was over 100 µM each time. The TGI in assay [7], in assay [8], in assay [9] and in assay [10] was over 100 µM throughout.
In the case of `C=C1[C@@](C)([C@@H]2CCCS2)[C@H]2C(C)=C[C@]1(C)n1c(=O)n(-c3ccccc3)c(=O)n12`, the TGI in assay [1], in [2], in assay [3], in [4], in assay [5] and in assay [6] was over 100 µM throughout. Also, the TGI in [7], in [8], in assay [9] and in assay [10] was over 100 µM throughout.
Regarding `OCC(CCc1ccccc1I)C1=CCC2(CC1)OCCO2` (stereo not drawn), the TGI in assay [1] is 32.1 µM; in [2] it was 52 µM; in [3], 30.7 µM; in assay [4], 42.5 µM; in assay [5], 39.7 µM; in [6], over 100 µM. In addition, the TGI in assay [7] turned out to be 58.4 µM; in assay [8], 50 µM; in assay [9] it was 31 µM; in [10], 35.3 µM.
As to `COC(=O)[C@@](C)(COC(=O)C(C)(C)C)NC(=O)OC(C)(C)C`, the TGI in assay [1], in assay [2], in assay [3], in assay [4], in assay [5] and in [6] was over 100 µM in each case. Also, the TGI in assay [7], in assay [8], in assay [9] and in assay [10] was over 100 µM in each case.
As to `COc1ccc(C2OCCN2C)cc1` (stereo not drawn), the TGI in assay [1], in [2], in assay [3], in assay [4], in assay [5] and in assay [6] was over 100 µM each time. Also, the TGI in assay [7], in assay [8], in [9] and in [10] was over 100 µM in each case.
For `C[N+](C)(C)C=Nc1cccc2c1CCCC2`, the TGI in assay [1], in assay [2], in assay [3], in assay [4], in [5] and in assay [6] was over 100 µM throughout. Moreover, the TGI in assay [7], in assay [8] and in [10] was over 100 µM each time.
For `CCOC(=O)NNC(=O)NCc1ccccc1CNC(=O)NNC(=O)OCC`, the TGI in assay [2], in assay [3], in assay [4], in [5], in assay [6] and in assay [7] was over 100 µM each time. Further, the TGI in [8], in [9] and in assay [10] was over 100 µM throughout.
Turning to `CCOC(=O)C(NC(=O)CC)(Nc1ccc(S(=O)(=O)Nc2onc(C)c2C)cc1)C(F)(F)F` (stereo not drawn), the TGI in [1], in assay [2], in [3], in assay [4], in assay [5] and in assay [6] was over 100 µM in each case. For the same molecule, the TGI in assay [7], in [8], in [9] and in assay [10] was over 100 µM each time.
Regarding `Cc1nc2n(c1/C=C1/C(=O)Nc3ccccc31)CCS2`, the TGI is over 100 µM in assay [1]; 87 µM in assay [2]; 36.1 µM in assay [3]; over 100 µM in [4]; over 100 µM in assay [5]; over 100 µM in [6]. For the same molecule, the TGI in assay [7], in assay [8], in [9] and in [10] was over 100 µM in each case.
On to `Nc1cccc(S(=O)(=O)Nc2nnc(S(N)(=O)=O)s2)c1`, for which the TGI in assay [1], in assay [2], in assay [3], in assay [4], in assay [5] and in [6] was over 100 µM throughout. Further, the TGI in assay [7], in assay [8], in [9] and in assay [10] was over 100 µM in each case.
In the case of `CS(=O)(=O)c1nc(-c2cc3c(c(S(C)(=O)=O)n2)CCC3)cc2c1CCCC2`, the TGI is over 100 µM in assay [1]; 23.4 µM in [2]; over 100 µM in assay [3]; over 100 µM in assay [4]; 34.8 µM in [5]; 77.7 µM in assay [6]. Besides, the TGI in [7] was over 100 µM; in assay [8], 24.4 µM; in [9], over 100 µM; in [10], over 100 µM.
For the molecule `CO[C@H]1O[C@@H]2CO[C@@H](c3ccccc3)O[C@H]2[C@@H]2C/C=C\CCC[C@@]12O`, the TGI was 42 µM in assay [1]; over 100 µM in [2]; 52.9 µM in [3]; 33 µM in assay [4]; 96.2 µM in assay [5]; 99.7 µM in assay [6]. For the same molecule, the TGI is 45.8 µM in [7], 43.3 µM in assay [8], 54.9 µM in [9] and 45.9 µM in [10].
Consider `COc1ccc(CNC(=O)[C@@H]2CCCN2C(=O)[C@@H](C)N(C)C(=O)[C@H](C(C)C)N(C)C(=O)[C@@H](NC(=O)[C@H](C(C)C)N(Cc2ccccc2)Cc2ccccc2)C(C)C)c(OC)c1` (Bn2Val-V[NMeV][dNMeA]P-X29), for which the TGI is 10.7 µM in assay [1]; 7.26 µM in assay [2]; 6.61 µM in assay [3]; 11.1 µM in assay [4]; 12.6 µM in [5]; 63.2 µM in [6]. The TGI was 12 µM in assay [7], over 100 µM in assay [8], 5.78 µM in assay [9] and 10.5 µM in [10].
As for `O=C(Sc1c(-c2ccccc2)c(=O)n(-c2ccccc2)c(=S)n1-c1ccccc1)c1cccs1`, the TGI in [1], in [2], in [3], in assay [4], in assay [5] and in assay [6] was over 100 µM each time. Further, the TGI in assay [7], in assay [8], in [9] and in assay [10] was over 100 µM each time.
On to `CC(C)(C)CC(C)(C)NC(=S)NO`, for which the TGI in assay [1], in assay [2], in assay [3], in assay [4], in assay [5] and in [6] was over 100 µM throughout. In addition, the TGI in [7], in assay [8], in assay [9] and in assay [10] was over 100 µM in each case.
Turning to `Cc1ccc(-c2cc(O)c3nc4ccccc4n3c2)cc1`, the TGI in [1], in assay [2], in [3], in assay [4], in assay [5] and in [6] was over 100 µM in each case. The TGI in assay [7], in [8], in assay [9] and in assay [10] was over 100 µM in each case.
As to `CN1CN(c2ccccc2)C2(CCN(CCCCCCF)CC2)C1=O`, the TGI in assay [1], in [2], in [3], in [4], in [5] and in [6] was over 100 µM throughout. In addition, the TGI in [7], in [8], in [9] and in assay [10] was over 100 µM in each case.
As for `O=C(O)CC[P+](c1ccccc1)(c1ccccc1)c1ccccc1`, the TGI in assay [1], in assay [2], in assay [3], in [4], in assay [5] and in assay [6] was over 100 µM throughout. Moreover, the TGI in assay [7], in assay [8], in assay [9] and in assay [10] was over 100 µM each time.
Take `CCCC1C(=O)Nc2cccc3ncn(c23)C1=O` (stereo not drawn): the TGI in assay [1], in assay [2], in assay [3], in assay [4], in [5] and in assay [6] was over 100 µM in each case. In addition, the TGI in assay [7], in assay [8], in [9] and in assay [10] was over 100 µM each time.
As for `Cc1ccc(NC2=NCCO2)c2c1CCC2`, the TGI in assay [1] is over 100 µM; in [2] it was 84.5 µM; in [3] it was 46.2 µM; in assay [4], over 100 µM; in [5], over 100 µM; in [6] it was over 100 µM. In addition, the TGI in [7] was over 100 µM; in [8], over 100 µM; in assay [9], 63.9 µM; in assay [10] it was 57 µM.
Take `COCC1OC(S(=O)(=O)c2ccccc2)C(O)C(OC)C1OC` (stereo not drawn): the TGI in assay [1], in assay [2], in [3], in assay [4], in [5] and in [6] was over 100 µM throughout. The TGI in assay [7], in assay [8], in assay [9] and in assay [10] was over 100 µM in each case. In addition, the GI50 in assay [2] was > 100 µM and 12.1 µM.
With `Cc1ccc(-n2cc(-c3ccc(Cl)cc3)c3c(NN)ncnc32)cc1`, the TGI amounted to 10.7 µM in [1]; 7.6 µM in [2]; 29.4 µM in assay [3]; 11.1 µM in assay [4]; 11.2 µM in [5]; 44.2 µM in [6]. The TGI in [7] was found to be 9.99 µM; in assay [8], 17.8 µM; in [9], 29 µM; in assay [10], 3.75 µM.
Regarding `NC(Cc1c[nH]c2cc([N+](=O)[O-])ccc12)C(=O)O` (stereo not drawn), the TGI in [1], in assay [2], in [3], in assay [4], in assay [5] and in [6] was over 100 µM in each case. Besides, the TGI in [7], in assay [8], in [9] and in [10] was over 100 µM throughout.
Turning to `COc1ccc(C(Cc2ccccc2)C2NC(=S)NC2=O)cc1` (stereo not drawn), the TGI in assay [1], in assay [2], in assay [3], in assay [4], in assay [5] and in assay [6] was over 25 µM throughout. The TGI in [7], in assay [8], in assay [9] and in assay [10] was over 25 µM in each case.
Turning to `[O-][n+]1c(CN2CCCCC2)nc2cccc3c2c1-c1ccccc1-3`, the TGI was 84 µM in assay [1]; 50.2 µM in assay [2]; 68 µM in assay [3]; 51.5 µM in [4]; over 100 µM in [5]; 92.5 µM in [6]. Besides, the TGI is 49.2 µM in [7], over 100 µM in assay [9] and 31.3 µM in assay [10].
